Measured values published in US4080467A, “Pharmaceutical compositions comprising 1,3-dithiolan-2-ylidene malonate derivatives” (Nihon Nohyaku Co., Ltd., priority 1976, dated 1978).

Experiments:
[1] = system: acute liver damage associated with periportal necrosis (allyl alcohol); experiment: Protective effect on acute liver damage associated with periportal necrosis (allyl alcohol model), BSP test; type: in vivo, male mouse (4 week-old dd-strain); conditions: 100 mg/kg oral 6 h before allyl alcohol 0.075 ml/kg; 24 h after
Protocol: The compound of this invention or anethol trithion was orally administered to the male mouse (4 week-old dd-strain) at the dose of 100 mg/kg. Six hours after it, allyl alcohol was orally administered at the dose of 0.075 ml/kg. Twenty four hours after it, the animals were sacrificed to collect blood samples. The residual quantity of BSP was measured by BSP test, from which the protective effect of the compound of this invention was evaluated.

[2] = system: bile flow and biliary salt; experiment: Cholagogic action: bile flow and excretion of biliary salt; type: in vivo, male rat (4 week-aged, SD-JCL strain); conditions: 200 mg/kg oral; for bile flow / excretion of biliary salt: before treatment = 100
Protocol: The male rat (4 week-aged, SD-JCL strain) was anesthetized with sodium pentobarbital (37.5 mg/kg, intraperitoneal injection). The abdominal cavity was opened through a midline incision. The common bile duct was catheterized with polyethylene tube o.d. 0.8 mm. The catheter was brought to the outside through the abdominal incision wound prior to closing. Bile was collected from the catheter continuously with time intervals of one hour. The quantity of bile produced in one hour was determined by weighing and that of biliary salt was determined by enzymatic method (Ikagaku Jikkenho Koza 1B, Biological Constituents II, edited by Tamio YAMAKAWA). The amount of biliary salts was represented as cholic acid equivalent.
In the representation of the results, the quantities of bile and biliary salts produced in one hour prior to the administration of drug were taken as 100. The compound of this invention was orally administered at the dose of 200 mg/kg. As reference anethol trithion was used.

[3] = system: Acute Liver Damage associated with Centrilobular Necrosis (carbon tetrachloride); experiment: Protective effect on acute liver damage associated with centrilobular necrosis (carbon tetrachloride model); type: in vivo, mice (four-week-old male, dd strain); conditions: 250 mg/kg oral 6 h before CCl4, average of 5 to 6 mice
Description: Carbon tetrachloride (CCl4) administration induces centrilobular necrosis of the liver associated with loss of diphosphopyridine nucleotide, hepatic glycogen, coenzyme A and increase in neutral fat. Release of several enzymes from the hepatocytes, and increases of enzyme activities in the plasma are recognized as the result of the damage of the liver. A suitable means for evaluating the degree of damage induced by CCl4 or the degree of protection afforded by drugs is to study the plasma glutamic-pyruvic transaminase (p-GPT) activity.
Method: The test compounds were dissolved or suspended in olive oil and administered orally at the dose of 250 mg/kg to the mice (Four-week-old male mice-dd strain). After 6 hours, CCl4 was administered orally (0.05 ml/kg as olive oil solution). Animals were killed 24 hours after CCl4 administration, and the liver was grossly observed. The plasma was obtained by centrifugation. Activities of p-GPT were determined by the method of Reitman and Frankel and expressed in Karmen units.
Score for liver damage was as follows: […]
4 Clearly observable damage
Each figure indicates average of 5 to 6 mice. Values of p-GPT over 1,000 Karmen unit regarded as 1,000 for calculation of average for convenience.

[4] = system: Chronic Liver Damage (thioacetamide); experiment: Therapeutic effect on chronic liver damage (thioacetamide model), BSP test; type: in vivo, rats (Sprague Dawley strain); conditions: 12 times TAA 100 mg/kg, then diet + 0.2% compound
Protocol: In the tests of this Example, TAA was repeatedly administered to animals to prepare test animals suffering from somewhat chronic liver damages, and then the present compounds were administered thereto to know whether or not the compounds were effective against chronic hepatitis.
The degree of the liver damage and the therapeutic effects of the compounds were evaluated according to BSP test. The BSP test is a method in which BSP (sulfobromophthalein sodium), a dye known to be quickly metabolized in and excreted from the liver, is intravenously injected into animals and, after a definite period of time, the blood is taken out to measure the amount of BSP remaining in the plasma. In case the animals are suffering from the liver damage, the dye will remain, according to the degree of the damage, at the stage where a major portion of BSP is metabolized and excreted in the case of normal animals.
Five groups of rats (Sprague Dawley strain) were treated as follows:
Group A: The rats were orally administered with 100 mg/kg of thioacetamide,at 3 days intervals for 36 days (12 times of the administration), then were submitted for 10 days to a normal diet.
Group B: The rats were orally administered with 100 mg/kg of thioacetamide at 3 days intervals for 36 days (12 times of the administration), then were submitted for 10 days to the normal diet + 0.2% of compound 4.
Group C: The rats were orally administered with 100 mg/kg of thioacetamide at 3 days intervals for 36 days (12 times of the administration) then were submitted for 10 days to the normal diet + 0.2% of compound 2.
Group D: The rats were orally administered with 100 mg/kg of thioacetamide at 3 days intervals for 36 days (12 times of the administration) then were submitted for 10 days to the normal diet + 0.2% of anethol trithion.
Group E: The rats were submitted to the normal diet as the control.
Five rats were sacrified from each group at appropriate intervals for BSP (sulfobromophthalein) test, the results of which were shown as amounts (mg) of BSP remaining in 1 dl of plasma.

[5] = system: acute liver damage associated with discrete lobular necrosis (D-galactosamine); experiment: Protective effect on acute hepatitis with mesenchymal reaction and discrete lobular necrosis (D-galactosamine model); type: in vivo, male rat (SD strain); conditions: 100 mg/kg oral 6 h before D-galactosamine
Protocol: D-Galactosamine is a compound which induces a discrete lobular necrosis associated with mesenchymal reaction similar to the change observed in human viral hepatitis, so that it is frequently used in producing a model for viral hepatitis.
The compound of this invention or anethol trithion was administered orally to the male rat (SD strain) at the dose of 100 mg/kg. Six hours after it, D-galacetosamine was intraperitoneally administered at the dose of 600 mg/kg. Four hours after it, an additional 300 mg/kg was administered intraperitoneally. Eight hours after it, the animals were sacrificed to collect the blood samples. P-GPT activity and triglyceride in the liver were measured to evaluate the effect of the compound of this invention.

Q: What does the source list for COc1ccc(-c2cc(=S)ss2)cc1 [Anethol trithion, anethol trithion, reference compound]?
A: Index of hepatotoxicity: BSP (residual quantity of BSP) [1]: 19.3±4.6; bile flow ([2]; 1 hour after treatment): 114±15; excretion of biliary salt ([2]; 1 hour after treatment): 108±12; bile flow ([2]; 2 hours after treatment): 114±15; excretion of biliary salt ([2]; 2 hours after treatment): 89±11; bile flow ([2]; 3 hours after treatment): 102±11; excretion of biliary salt ([2]; 3 hours after treatment): 66±3.8; bile flow ([2]; 4 hours after treatment): 95±7.7; excretion of biliary salt ([2]; 4 hours after treatment): 47±3.0; bile flow ([2]; 5 hours after treatment): 86±6.6; excretion of biliary salt ([2]; 5 hours after treatment): 3.3±4.0; Quantity of total excreted bile for 5 hours relative to control ([2]; versus control): 1.10 times; p-GPT (plasma glutamic-pyruvic transaminase activity) ([3]; 24 h after CCl4, values over 1,000 regarded as 1,000): 38 Karmen units; Liver Damage Index ([3]; 0 normal, 2 slightly recognized, 4 clearly observable damage, 6 heavy damage): 1.6; Concentration of BSP in plasma ([4]; 2 Days): 9.7 ± 4.1 mg/dL; Concentration of BSP in plasma ([4]; 5 Days): 7.3 ± 3.4 mg/dL; Concentration of BSP in plasma ([4]; 10 Days): 0.9 ± 0.1 mg/dL; Triglyceride in liver [5]: 9.2 ± 1.5 mg/g; p-GPT [5]: 106±30 Karmen unit
